Data from patent publication US9290536B2, “C4 monomethyl triterpenoid derivatives and methods of use thereof” (Reata Pharmaceuticals, Inc., priority 2011, dated 2016).
pIC50: −log10 of the molar value.

tested on: IFNγ-induced NO production in RAW264.7; assay: Suppression of IFNγ-induced NO production in RAW264.7 mouse macrophages (Griess reagent, normalized to WST-1 cell viability); assay type: cell-based; conditions: RAW264.7 cells, 2 h pre-treatment with drug (0-200 nM), then IFNγ for 24 h
Procedure: Nitric Oxide Production and Cell Viability. […] On the next day, cells were pre-treated with DMSO or drug (0-200 nM dose range) for 2 hours, and then treated with recombinant mouse IFNγ (R&D Systems) for 24 hours. Nitric Oxide concentration in media was determined using the Griess reagent system (Promega). Cell viability was determined using WST-1 reagent (Roche). IC50 values were determined based on the suppression of IFNγ induced Nitric Oxide production normalized to cell viability.

Structure (SMILES) | pIC50
CCOC(=O)[C@]12CCC(C)(C)C[C@H]1[C@H]1C(=O)C[C@@H]3[C@@]4(C)C=C(C#N)C(=O)[C@@H](C)[C@@H]4CC[C@@]3(C)[C@]1(C)CC2 [TX63842] | 8.21
C[C@@H]1C(=O)C(C#N)=C[C@]2(C)C3=CC(F)[C@]45OC(=O)[C@@]6(CCC(C)(C)C[C@H]64)CC[C@@]5(C)[C@]3(C)CC[C@@H]12 (some centres unmarked) [TX63907] | 8.80
C[C@@H]1C(=O)C(C#N)=C[C@]2(C)C3=CC(=O)[C@@H]4[C@@H]5CC(C)(C)CC[C@]5(NC=O)CC[C@@]4(C)[C@]3(C)CC[C@@H]12 [TX63681] | 8.80
C/C(=N\O)NC(=O)[C@]12CCC(C)(C)C[C@H]1[C@H]1C(=O)C=C3[C@@]4(C)C=C(C#N)C(=O)[C@@H](C)[C@@H]4CC[C@@]3(C)[C@]1(C)CC2 [TX63786] | 8.66
C=C1C(O)=C(C#N)C[C@]2(C)C3=CC(=O)[C@@H]4[C@@H]5CC(C)(C)CC[C@]5(C(=O)OC)CC[C@@]4(C)[C@]3(C)CC[C@@H]12 [TX63910] | 6.52
C[C@@H]1C(=O)C(C#N)=C[C@]2(C)[C@H]3CC(=O)[C@@H]4[C@@H]5CC(C)(C)CC[C@]5(C(=O)O)CC[C@@]4(C)[C@]3(C)CC[C@@H]12 [TX63797] | 7.68
CC(=O)N[C@]12CCC(C)(C)C[C@H]1[C@H]1C(=O)C=C3[C@@]4(C)C=C(C#N)C(=O)[C@@H](C)[C@@H]4CC[C@@]3(C)[C@]1(C)CC2 [TX63622] | 8.42
CCCCNC(=O)[C@]12CCC(C)(C)C[C@H]1[C@H]1C(=O)C=C3[C@@]4(C)C=C(C#N)C(=O)[C@@H](C)[C@@H]4CC[C@@]3(C)[C@]1(C)CC2 [TX63877] | 8.89
C[C@@H]1C(=O)C(C#N)=C[C@]2(C)C3=CC(=O)[C@@H]4[C@@H]5CC(C)(C)CC[C@]5(C(=O)N5CCCC5)CC[C@@]4(C)[C@]3(C)CC[C@@H]12 [TX63823] | 9.10
CSCOC[C@]12CCC(C)(C)C[C@H]1[C@H]1C(=O)C[C@@H]3[C@@]4(C)C=C(C#N)C(=O)[C@@H](C)[C@@H]4CC[C@@]3(C)[C@]1(C)CC2 [TX63859] | 7.84
COC(=O)[C@]12CCC(C)(C)C[C@H]1[C@H]1C(=O)C=C3[C@@]4(C)C=C(C(=O)O)C(=O)[C@@H](C)[C@@H]4CC[C@@]3(C)[C@]1(C)CC2 [TX63830] | 8.34
CNC(=O)[C@]12CCC(C)(C)C[C@H]1[C@H]1C(=O)C=C3[C@@]4(C)C=C(C#N)C(=O)[C@@H](C)[C@@H]4CC[C@@]3(C)[C@]1(C)CC2 [TX63824] | 9.00
CCCCNC(=O)[C@]12CCC(C)(C)C[C@H]1[C@H]1C(=O)C[C@@H]3[C@@]4(C)C=C(C#N)C(=O)[C@@H](C)[C@@H]4CC[C@@]3(C)[C@]1(C)CC2 [TX63843] | 7.96
COC(=O)[C@]12CCC(C)(C)C[C@H]1[C@H]1C(=O)C=C3[C@@]4(C)C=C(C#N)C(=O)C(C)=C4CC[C@@]3(C)[C@]1(C)CC2 [TX63448] | 7.12
C[C@@H]1C(=O)C(C#N)=C[C@]2(C)[C@H]3CC(=O)[C@@H]4[C@@H]5CC(C)(C)CC[C@]5(C(=O)NO)CC[C@@]4(C)[C@]3(C)CC[C@@H]12 [TX63814] | 7.72
CCOC(=O)N[C@]12CCC(C)(C)C[C@H]1[C@H]1C(=O)C=C3[C@@]4(C)C=C(C#N)C(=O)[C@@H](C)[C@@H]4CC[C@@]3(C)[C@]1(C)CC2 [TX63800] | 9.05
CCC(=O)N[C@]12CCC(C)(C)C[C@H]1[C@H]1C(=O)C=C3[C@@]4(C)C=C(C#N)C(=O)[C@@H](C)[C@@H]4CC[C@@]3(C)[C@]1(C)CC2 [TX63864] | 8.72
COCCC[C@]12CCC(C)(C)C[C@H]1[C@H]1C(=O)C=C3[C@@]4(C)C=C(C#N)C(=O)[C@@H](C)[C@@H]4CC[C@@]3(C)[C@]1(C)CC2 [TX63919] | 8.85
CCNC(=O)[C@]12CCC(C)(C)C[C@H]1[C@H]1C(=O)C[C@@H]3[C@@]4(C)C=C(C#N)C(=O)[C@@H](C)[C@@H]4CC[C@@]3(C)[C@]1(C)CC2 [TX63680] | 8.15
CC(=O)OC[C@]12CCC(C)(C)C[C@H]1[C@H]1C(=O)C[C@@H]3[C@@]4(C)C=C(C#N)C(=O)[C@@H](C)[C@@H]4CC[C@@]3(C)[C@]1(C)CC2 [TX63840] | 8.54
C[C@@H]1C(=O)C(C#N)=C[C@]2(C)C3=CC(=O)[C@@H]4[C@@H]5CC(C)(C)CC[C@]5(c5nnco5)CC[C@@]4(C)[C@]3(C)CC[C@@H]12 [TX63789] | 9.22
COC(=O)[C@]12CCC(C)(C)C[C@H]1C1=CC[C@@H]3[C@@]4(C)CC(C#N)=C(OC(C)=O)[C@@H](C)[C@@H]4CC[C@@]3(C)[C@]1(C)CC2 [TX63795] | < 6.70
C[C@@H]1C(=O)C(C#N)=C[C@]2(C)C3=C[C@@H](O)[C@]4(O)[C@@H]5CC(C)(C)CC[C@]5(CO)CC[C@@]4(C)[C@]3(C)CC[C@@H]12 [TX63904] | 7.98
CNC(=O)N[C@]12CCC(C)(C)C[C@H]1[C@H]1C(=O)C=C3[C@@]4(C)C=C(C#N)C(=O)[C@@H](C)[C@@H]4CC[C@@]3(C)[C@]1(C)CC2 [TX63876] | 8.14

Structure (SMILES) | pIC50
C[C@@H]1C(=O)C(C#N)=C[C@]2(C)C3=CC(=O)[C@@H]4[C@@H]5CC(C)(C)CC[C@]5(CCC(=O)N5CCCC5)CC[C@@]4(C)[C@]3(C)CC[C@@H]12 [TX63893] | 9.30
C[C@@H]1C(=O)C(C#N)=C[C@]2(C)[C@H]3CC(=O)[C@@H]4[C@@H]5CC(C)(C)CC[C@]5(C#N)CC[C@@]4(C)[C@]3(C)CC[C@@H]12 [TX63817] | 8.59
C[C@@H]1C(=O)C(C#N)=C[C@]2(C)C3=CC(=O)[C@@H]4[C@@H]5CC(C)(C)CC[C@]5(NS(C)(=O)=O)CC[C@@]4(C)[C@]3(C)CC[C@@H]12 [TX63621] | 9.10
CCOC(=O)[C@]12CCC(C)(C)C[C@H]1[C@@]1(O)C(=O)C=C3[C@@]4(C)C=C(C#N)C(=O)[C@@H](C)[C@@H]4CC[C@@]3(C)[C@]1(C)CC2 [TX63901] | 8.89
C[C@@H]1C(=O)C(C#N)=C[C@]2(C)[C@H]3CC(=O)[C@@H]4[C@@H]5CC(C)(C)CC[C@]5(COC(=O)C(F)(F)F)CC[C@@]4(C)[C@]3(C)CC[C@@H]12 [TX63841] | 8.35
COC[C@]12CCC(C)(C)C[C@H]1[C@H]1C(=O)C[C@@H]3[C@@]4(C)C=C(C#N)C(=O)[C@@H](C)[C@@H]4CC[C@@]3(C)[C@]1(C)CC2 [TX63858] | 8.14
C[C@@H]1C(=O)C(C#N)=C[C@]2(C)[C@H]3CC(=O)[C@@H]4[C@@H]5CC(C)(C)CC[C@]5(COCF)CC[C@@]4(C)[C@]3(C)CC[C@@H]12 [TX63860] | 8.39
C[C@@H]1C(=O)C(C#N)=C[C@]2(C)C3=CC(=O)[C@@H]4[C@@H]5CC(C)(C)CC[C@]5(CCC(=O)NCC(F)(F)F)CC[C@@]4(C)[C@]3(C)CC[C@@H]12 [TX63887] | 9.10
C[C@@H]1C(=O)C(C#N)=C[C@]2(C)[C@H]3CC(=O)[C@@H]4[C@@H]5CC(C)(C)CC[C@]5(CO)CC[C@@]4(C)[C@]3(C)CC[C@@H]12 [TX63839] | 8.40
C[C@@H]1C(=O)C(C#N)=C[C@]2(C)C3=C[C@@H](O)[C@@H]4[C@@H]5CC(C)(C)CC[C@]5(CO)CC[C@@]4(C)[C@]3(C)CC[C@@H]12 [TX63923] | 8.60
COC(=O)[C@]12CCC(C)(C)C[C@H]1[C@H]1C(=O)C=C3[C@@]4(C)CC(C#N)=C(O)[C@@H](C)[C@@H]4CC[C@@]3(C)[C@]1(C)CC2 [TX63778] | 7.30
C[C@@H]1C(=O)C(C#N)=C[C@]2(C)C3=CC(=O)[C@@H]4[C@@H]5CC(C)(C)CC[C@]5(O)CC[C@@]4(C)[C@]3(C)CC[C@@H]12 [TX63925] | 9.40
CCNC(=O)[C@]12CCC(C)(C)C[C@H]1[C@H]1C(=O)C=C3[C@@]4(C)C=C(C#N)C(=O)C(C)=C4CC[C@@]3(C)[C@]1(C)CC2 [TX63597] | < 7.60
C[C@@H]1C(=O)C(C#N)=C[C@]2(C)C3=CC(=O)[C@@H]4[C@@H]5CC(C)(C)CC[C@]5(C#N)CC[C@@]4(C)[C@]3(C)CC[C@@H]12 [TX63558] | 9.22
CC(=O)OC[C@]12CCC(C)(C)C[C@H]1[C@H]1C(=O)C=C3[C@@]4(C)C=C(C#N)C(=O)[C@@H](C)[C@@H]4CC[C@@]3(C)[C@]1(C)CC2 [TX63546] | 9.00
C[C@@H]1C(=O)C(C#N)=C[C@]2(C)[C@H]3CC(=O)[C@@H]4[C@@H]5CC(C)(C)CC[C@]5(C(=O)N5CCOCC5)CC[C@@]4(C)[C@]3(C)CC[C@@H]12 [TX63812] | 8.00
COC(=O)[C@]12CCC(C)(C)C[C@H]1C1=CC[C@@H]3[C@@]4(C)C=C(C#N)C(=O)[C@@H](C)[C@@H]4CC[C@@]3(C)[C@]1(C)CC2 [TX63779] | 7.36
C[C@@H]1C(=O)C(C#N)=C[C@]2(C)C3=CC(=O)[C@@H]4[C@@H]5CC(C)(C)CC[C@]5(CCC(=O)N5CCC5)CC[C@@]4(C)[C@]3(C)CC[C@@H]12 [TX63889] | 9.40
CNC(=O)CC[C@]12CCC(C)(C)C[C@H]1[C@H]1C(=O)C=C3[C@@]4(C)C=C(C#N)C(=O)[C@@H](C)[C@@H]4CC[C@@]3(C)[C@]1(C)CC2 [TX63886] | 9.52
C[C@@H]1C(=O)C(C#N)=C[C@]2(C)C3=CC(=O)[C@@H]4[C@@H]5CC(C)(C)CC[C@]5(NC(=O)C5CC5)CC[C@@]4(C)[C@]3(C)CC[C@@H]12 [TX63866] | 8.85
C[C@@H]1C(=O)C(C#N)=C[C@]2(C)C3=CC(=O)[C@@H]4[C@@H]5CC(C)(C)CC[C@]5(COC(=O)CN)CC[C@@]4(C)[C@]3(C)CC[C@@H]12 [TX63717] | 9.22
COC(=O)[C@]12CCC(C)(C)C[C@H]1[C@@]1(O)C(=O)C=C3[C@@]4(C)C=C(C#N)C(=O)[C@@H](C)[C@@H]4CC[C@@]3(C)[C@]1(C)CC2 [TX63870] | 8.96
C[C@@H]1C(=O)C(C#N)=C[C@]2(C)C3=CC(=O)[C@@H]4[C@@H]5CC(C)(C)CC[C@]5(C(=O)NNC=O)CC[C@@]4(C)[C@]3(C)CC[C@@H]12 [TX63785] | 7.70
